Entries after “also recorded” stand apart in the source; their conditions may differ.
Columns and labels:
[1] = Frohn et al.; Clemens et al.; cited from earlier work
[2] = test system: Hs0578t cells; assay: growth inhibition of estrogen negative human breast cancer cell line Hs0578t in culture; format: cell-based; settings: for inhibition of Hs0578t cell growth, by concentration / IC50: 10^-15 M to 10^-5 M; for inhibition of Hs0578t cell growth, by concentration: inhibitory = proliferation decreased by 20% or more vs controls; for IC50: Homo sapiens, 120 h, approximate, estimated from manually fitted best fit curve, cell counts five days after seeding; for comparative assessment of potency / maximal inhibition, Hs0578t cell growth: summary statement
Experimental: (§1) The above examples were tested for their ability to inhibit the growth of both estrogen positive (MCF-7) and estrogen negative (Hs0578t) human breast cancer cell lines in culture. […] MCF-7 cells were maintained in Dulbecco's modified Eagle's medium (DMEM), supplemented with 10% fetal bovine serum (FBS), penicillin (10,000 units/ml) and streptomycin (10 mg/ml) at 37° C. in a humidified atmosphere containing 5% CO2. Hs0578t cells were maintained under similar conditions, however DMEM containing high glucose was used and 10 ug/ml of insulin was added to the medium. Prior to each experiment, cells from stock flasks were suspended by treatment with 0.2% EDTA in phosphate buffered saline (pH 7.3). The cells were then centrifuged at 1000 rpm for 7 minutes, then resuspended in fresh medium and counted on a hemocytometer. Cells were adjusted to a density of 3.0×10^6 /plate in 5 mls of supplemented plating medium. After 5 hours, the plating medium was replaced with fresh medium containing either melatonin or the above examples in concentrations ranging from 10^-15 M to 10^-5 M. These compounds were initially dissolved in ethanol and diluted to the appropriate final concentration with DMEM; the final concentration of ethanol per plate was 0.005%. Control cells were exposed to the ethanol vehicle alone (0.005%). Five days after initial seeding, the cells were resuspended with PBS-EDTA and counted on a hemocytometer to determine the total cell counts per plate. Each experiment was run using triplicate plates for each concentration of melatonin or above example as well as the vehicle controls. Cell growth in each of the experimental plates was expressed as a percent of control growth (100%). A given concentration of either an above example or of melatonin was considered to be inhibitory if it decreased cell proliferation by 20% or more as compared with controls. Since most of the dose-response curves were irregular, the approximate IC50 for each example was estimated from a best fit (manually fitted) curve spanning from the 100% control growth level to the maximal inhibitory concentration of that example. Effects of the above examples on estrogen receptor positive and estrogen receptor negative human breast cancer cell lines (MCF-7 and Hs0578t, respectively) are summarized in FIGS. 1-15, and discussed below. FIGS. 1-6 summarize effects on the MCF-7 cell line, while FIGS. 7-15 describe effects on the Hs0578t cell line.

[3] = test system: MCF-7 cells; assay: growth inhibition of estrogen positive human breast cancer cell line MCF-7 in culture; format: cell-based; settings: for inhibition of MCF-7 cell growth, by concentration: 10^-15 M to 10^-5 M, inhibitory = proliferation decreased by 20% or more vs controls; for comparative assessment of potency / maximal inhibition, MCF-7 cell growth: summary statement; for potency relative to melatonin (times more potent), MCF-7 cell growth: compared with melatonin IC50
Experimental: as §1

[4] = test system: frog skin; settings: Heward and Hadley 1975; cited from earlier work
[5] = test system: chicken retina; settings: Dubocovich 1984; cited from earlier work
[6] = test system: Hs0578t cells; settings: reference molecule, known activity; high concentrations; cited from earlier work
[7] = test system: mammary tumors; settings: melatonin administration; cited from earlier work
[8] = test system: MCF-7 cells; settings: reference molecule, known activity; cited from earlier work

COc1cc2c(CCNC(C)=O)c(C)[nH]c2c(Cl)c1Cl [2-methyl-6,7-dichloromelatonin]
metabolic stability [1]: improved metabolic stability

CC(=O)NCCn1c(C)ccc1C [Example #1]
stimulation of Hs0578t cell growth ([2]; 10^-9 M): cell growth is actually stimulated at 10^-9 M | inhibition of Hs0578t cell growth, by concentration [2]: inhibition of Hs0578t cell growth only at 10^-5 M | IC50 [2]: ~6 nM | inhibition of MCF-7 cell growth, by concentration [3]: all concentrations except 10^-11 M and 10^-7 M inhibited MCF-7 cell growth

O=C(NCCc1c[nH]c2ccccc12)OCc1ccccc1 [Example #2, N-Benzyloxycarbonyltryptamine]
inhibition of Hs0578t cell growth, by concentration [2]: inhibits Hs0578t cell growth at 10^-11 M and 10^-9 M | comparative assessment of potency / maximal inhibition, Hs0578t cell growth [2]: highly potent inhibitor of both cell lines, but also induces in both a substantial inhibitory response at low concentrations | inhibition of MCF-7 cell growth, by concentration [3]: inhibition of MCF-7 cell growth at all concentrations for Examples #2 and 9, with the exceptions of Example #2 at 10^-13 M | comparative assessment of potency / maximal inhibition, MCF-7 cell growth [3]: elicits the best maximal inhibitory response; also recorded: highly potent inhibitor of both cell lines, but also induces in both a substantial inhibitory response at low concentrations

COc1ccc2[nH]c3c(c2c1)CCN(C(C)=O)C3C (stereo not drawn) [Example #3, 1-Methyl-2-N-Acetyl-6-Methoxy-1,2,3,4-Tetrahydro-β-Carboline]
inhibition of Hs0578t cell growth, by concentration [2]: All concentrations of these compounds were inhibitory to cell growth | inhibition of MCF-7 cell growth, by concentration [3]: inhibited MCF-7 cell growth at all concentrations

COc1ccc2[nH]c(Cc3ccccc3)c(CCNC(C)=O)c2c1 [Example #4, 2-Benzyl-3-Ethylacetamido-5-Methoxyindole]
inhibition of Hs0578t cell growth, by concentration [2]: inhibits Hs0578t cell growth at 10^-13 M and 10^-7 M | comparative assessment of potency / maximal inhibition, Hs0578t cell growth [2]: appears to be the most potent inhibitor of Hs0578t cells | inhibition of MCF-7 cell growth, by concentration [3]: All concentrations of Example #4 were inhibitory to cell growth | potency relative to melatonin (times more potent), MCF-7 cell growth [3]: 60 times

CCC(=O)NCCc1c(Cc2ccccc2)[nH]c2ccccc12 [Example #5, 2-Benzyl-N-Propionyltryptamine]
inhibition of Hs0578t cell growth, by concentration [2]: no inhibition of Hs0578t cell growth was observed | concentration at which the maximal effect was seen (MCF-7) [3]: 10^-5 M | inhibition of MCF-7 cell growth, by concentration [3]: inhibited cell growth at all concentrations except 10^-13 M, 10^-11 M and 10^-7 M

CC(=O)N1CCc2c([nH]c3ccccc23)C1 [Example #6, 2-N-Acetyl-1,2,3,4-Tetrahydro-β-Carboline]
inhibition of MCF-7 cell growth, by concentration [3]: All concentrations except 10^-13 M and 10^-5 M were inhibitory to MCF-7 cell growth | comparative assessment of potency / maximal inhibition, MCF-7 cell growth [3]: appears to be the most potent inhibitor of MCF-7 cell growth

CC(=O)N1CCc2c([nH]c3ccc(OCc4ccccc4)cc23)C1C (stereo not drawn) [Example #7, 1-Methyl-2-N-Acetyl-6-Benzyloxy-1,2,3,4-Tetrahydro-β-Carboline]
inhibition of Hs0578t cell growth, by concentration [2]: All concentrations of these compounds were inhibitory to cell growth, with the exception of Example #7 at 10^-11 M | IC50 [2]: ~10 nM | inhibition of MCF-7 cell growth, by concentration [3]: All concentrations of Example #7 were inhibitory | Emax at 1 fM ([3]; Homo sapiens, MCF7, at 10^-15 M, read-out: maximal effect, inhibition (MCF-7 cell growth)): 37% | potency relative to melatonin (times more potent), MCF-7 cell growth [3]: 100 times

CC(=O)NCCc1c(Cc2ccccc2)[nH]c2ccccc12 [Example #8, 2-Benzyl-3-Ethylacetamidoindole]
IC50 [2]: ~0.1 nM

CC(=O)NCCc1c(Cc2cccc3ccccc23)[nH]c2ccccc12 [Example #9]
inhibition of Hs0578t cell growth, by concentration [2]: inhibits Hs0578t cell growth at 10^-5 M and 10^-7 M | IC50 [2]: ~4 nM | comparative assessment of potency / maximal inhibition, Hs0578t cell growth [2]: shows the best maximal inhibition of growth | inhibition of MCF-7 cell growth, by concentration [3]: inhibition of MCF-7 cell growth at all concentrations for Examples #2 and 9, with the exceptions of Example #2 at 10^-13 M and Example #9 at 10^-13 M and 10^-5 M

CC(=O)NCCc1c(Cc2ccc(C)cc2)[nH]c2ccccc12 [Example #10, 2-(4-Tolylmethyl)-3-Ethylacetamidoindole]
inhibition of Hs0578t cell growth, by concentration [2]: no inhibition of Hs0578t cell growth was observed | inhibition of MCF-7 cell growth, by concentration [3]: inhibits MCF-7 cell growth at 10^-15 M, 10^-13 M, and 10^-11 M

COc1ccc(Cc2[nH]c3ccccc3c2CCNC(C)=O)cc1 [Example #11, 2-(4-Methoxyphenyl)Methyl-3-Ethylacetamidoindole]
inhibition of Hs0578t cell growth, by concentration [2]: no inhibition of Hs0578t cell growth was observed | inhibition of MCF-7 cell growth, by concentration [3]: inhibits MCF-7 cell growth at 10^-15 M and 10^-13 M | comparative assessment of potency / maximal inhibition, MCF-7 cell growth [3]: not only a highly potent compound, but it elicits an impressive maximal inhibitory response at a very low concentration

CC(=O)NCCc1c[nH]c2ccc(O)cc12 [N-acetylserotonin]
melatonin blocking activity (frog skin lightening) [4]: melatonin blocking activity

CC(=O)NCCc1c[nH]c2ccccc12 [N-acetyltryptamine]
antagonism of inhibitory effect of melatonin in chicken retina [5]: competitively antagonized the inhibitory effect of melatonin in the chicken retina | melatonin blocking activity (frog skin lightening) [4]: melatonin blocking activity

COc1ccc2[nH]cc(CCNC(C)=O)c2c1 [melatonin, 5-methoxy-N-actyltryptamine]
inhibition of Hs0578t cell growth, by concentration [2]: no inhibitory effect in most experiments | inhibition of growth of estrogen negative cell lines such as Hs0578t [6]: at high concentrations, can inhibit estrogen negative cell lines such as Hs0578t | effect on mammary carcinogenesis [7]: melatonin administration has been shown to inhibit | inhibition of growth of estrogen positive cell lines [8]: known to inhibit growth of estrogen positive cell lines

Reference: patent US5314908A, “Compounds useful as antiproliferative agents” (Whitby Research, Inc., priority 1992, dated 1994)
